Results on 16 molecules are retold here after patent US12310975B2, “Modulators of BCL6 proteolysis and associated methods of use” (Arvinas Operations, Inc., priority 2019, dated 2025).

Where only a bound is given, the exact number is not on record here.

For the assay, the target named is BCL6 (Homo sapiens (Human), UniProt P41182). As to the kind of experiment: Immunofluorescence high content imaging of BCL6 degradation in T47D cells. Type of assay: cell-based. The following applies: class symbols A-D, read-out: EC50 (nM)*. Summed up: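 Following a 3-day incubation with serially diluted bifunctional compounds (final top 0.1 or 1 μM), T47D cells were PFA-fixed and immunostained for BCL6. Nuclear BCL6 signal was captured on a high-content imager.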
For `CNC(=O)COc1cc2cc(Nc3nc(N4CCC(OCCOCCOCCOc5cccc(CCOc6ccc7c(c6)CN(C6CCC(=O)NC6=O)C7=O)c5)CC4)ncc3Cl)ccc2n(C)c1=O` (stereo not shown) [compound 100, 2-((6-((5-chloro-2-(4-(2-(2-(2-(3-(2-((2-(2,6-dioxopiperidin-3-yl)-1-oxoisoindolin-5-yl)oxy)ethyl)phenoxy)ethoxy)ethoxy)ethoxy)piperidin-1-yl)pyrimidin-4-yl)amino)-1-methyl-2-oxo-1,2-dihydroquinolin-3-yl)oxy)-N-methylacetamide], the DC50 is > 100 nM.
`CNC(=O)COc1cc2cc(Nc3nc(N4CCC(N(C)[C@H]5CC[C@H](CN6CCN(c7ccc8c(c7)CN(C7CCC(=O)NC7=O)C8=O)CC6)CC5)CC4)ncc3Cl)ccc2n(C)c1=O` (stereo partly shown) [compound 101, 2-((6-((5-chloro-2-(4-(((1r,4r)-4-((4-(2-(2,6-dioxopiperidin-3-yl)-1-oxoisoindolin-5-yl)piperazin-1-yl)methyl)cyclohexyl) (methyl)amino)piperidin-1-yl)pyrimidin-4-yl)amino)-1-methyl-2-oxo-1,2-dihydroquinolin-3-yl)oxy)-N-methylacetamide]: the DC50 is < 10 nM.
Consider `CNC(=O)COc1cc2cc(Nc3nc(N4CCC(N(C)[C@H]5CC[C@@H](CN6CCN(c7ccc8c(c7)CN(C7CCC(=O)NC7=O)C8=O)CC6)CC5)CC4)ncc3Cl)ccc2n(C)c1=O` (stereo partly shown) [compound 102, 2-((6-((5-chloro-2-(4-(((1s,4s)-4-((4-(2-(2,6-dioxopiperidin-3-yl)-1-oxoisoindolin-5-yl)piperazin-1-yl)methyl)cyclohexyl) (methyl)amino)piperidin-1-yl)pyrimidin-4-yl)amino)-1-methyl-2-oxo-1,2-dihydroquinolin-3-yl)oxy)-N-methylacetamide], for which the DC50 is < 10 nM.
In the case of `CNC(=O)COc1cc2cc(Nc3nc(N4CCN(CCCN5CCN(c6ccc7c(c6)CN(C6CCC(=O)NC6=O)C7=O)CC5)CC4)ncc3Cl)ccc2n(C)c1=O` (stereo not shown) [compound 103, 2-((6-((5-chloro-2-(4-(3-(4-(2-(2,6-dioxopiperidin-3-yl)-1-oxoisoindolin-5-yl)piperazin-1-yl)propyl)piperazin-1-yl)pyrimidin-4-yl)amino)-1-methyl-2-oxo-1,2-dihydroquinolin-3-yl)oxy)-N-methylacetamide], the DC50 is 10 to 50 nM.
Next, `CN1C(=O)CCc2cc(Nc3cc(N4CCC(OCCOCCOCCOCCOCCOc5ccc6c(c5)CN(C5CCC(=O)NC5=O)C6=O)CC4)c([N+](=O)[O-])cc3Cl)ccc21` (stereo not shown) [compound 105, 3-(5-((14-((1-(4-chloro-5-((1-methyl-2-oxo-1,2,3,4-tetrahydroquinolin-6-yl)amino)-2-nitrophenyl)piperidin-4-yl)oxy)-3,6,9,12-tetraoxatetradecyl)oxy)-1-oxoisoindolin-2-yl)piperidine-2,6-dione]: > 100 nM; `CNC(=O)COc1cc2cc(Nc3nc(N4CCC(c5cn(CCOc6ccc7c(c6)C(=O)N(C6CCC(=O)NC6=O)C7=O)nn5)CC4)ncc3Cl)ccc2n(C)c1=O` (stereo not shown) [compound 106, 2-((6-((5-chloro-2-(4-(1-(2-((2-(2,6-dioxopiperidin-3-yl)-1,3-dioxoisoindolin-5-yl)oxy)ethyl)-1H-1,2,3-triazol-4-yl)piperidin-1-yl)pyrimidin-4-yl)amino)-1-methyl-2-oxo-1,2-dihydroquinolin-3-yl)oxy)-N-methylacetamide]: 10 to 50 nM; `CNC(=O)COc1cc2cc(Nc3nc(N4CCC(c5cn(CCOCCOc6ccc7c(c6)C(=O)N(C6CCC(=O)NC6=O)C7=O)nn5)CC4)ncc3Cl)ccc2n(C)c1=O` (stereo not shown) [compound 107, 2-((6-((5-chloro-2-(4-(1-(2-(2-((2-(2,6-dioxopiperidin-3-yl)-1,3-dioxoisoindolin-5-yl)oxy)ethoxy)ethyl)-1H-1,2,3-triazol-4-yl)piperidin-1-yl)pyrimidin-4-yl)amino)-1-methyl-2-oxo-1,2-dihydroquinolin-3-yl)oxy)-N-methylacetamide]: 10 to 50 nM.
For `CNC(=O)COc1cc2cc(Nc3nc(N4CCC(c5cn(CCOCCOCCOCCOCC(=O)N[C@H](C(=O)N6C[C@H](O)C[C@H]6C(=O)N[C@@H](C)c6ccc(-c7scnc7C)cc6)C(C)(C)C)nn5)CC4)ncc3Cl)ccc2n(C)c1=O` [compound 108, (2S,4R)-1-((S)-2-(tert-butyl)-17-(4-(1-(5-chloro-4-((1-methyl-3-(2-(methylamino)-2-oxoethoxy)-2-oxo-1,2-dihydroquinolin-6-yl)amino)pyrimidin-2-yl)piperidin-4-yl)-1H-1,2,3-triazol-1-yl)-4-oxo-6,9,12,15-tetraoxa-3-azaheptadecanoyl)-4-hydroxy-N-((S)-1-(4-(4-methylthiazol-5-yl)phenyl)ethyl)pyrrolidine-2-carboxamide], the DC50 was in the range of 50 to 100 nM.
The value for `CNC(=O)COc1cc2cc(Nc3nc(N4CCC(OCCOCCOCCOCCOc5cccc(-c6ccc7c(c6)CN(C6CCC(=O)NC6=O)C7=O)c5)CC4)ncc3Cl)ccc2n(C)c1=O` (stereo not shown) [compound 109, 2-((6-((5-chloro-2-(4-(2-(2-(2-(2-(3-(2-(2,6-dioxopiperidin-3-yl)-1-oxoisoindolin-5-yl)phenoxy)ethoxy)ethoxy)ethoxy)ethoxy)piperidin-1-yl)pyrimidin-4-yl)amino)-1-methyl-2-oxo-1,2-dihydroquinolin-3-yl)oxy)-N-methylacetamide] was > 100 nM.
The value for `CNC(=O)COc1cc2cc(Nc3nc(N4CCC(OCCOCCOCCOc5ccccc5OCCOc5ccc6c(c5)CN(C5CCC(=O)NC5=O)C6=O)CC4)ncc3Cl)ccc2n(C)c1=O` (stereo not shown) [compound 110, 2-((6-((5-chloro-2-(4-(2-(2-(2-(2-(2-((2-(2,6-dioxopiperidin-3-yl)-1-oxoisoindolin-5-yl)oxy)ethoxy)phenoxy)ethoxy)ethoxy)ethoxy)piperidin-1-yl)pyrimidin-4-yl)amino)-1-methyl-2-oxo-1,2-dihydroquinolin-3-yl)oxy)-N-methylacetamide] was > 100 nM; that for `CNC(=O)COc1cc2cc(Nc3nc(N4CCC(OCCOCCOCCCOc5ccccc5CCOc5ccc6c(c5)CN(C5CCC(=O)NC5=O)C6=O)CC4)ncc3Cl)ccc2n(C)c1=O` (stereo not shown) [compound 111, 2-((6-((5-chloro-2-(4-(2-(2-(3-(2-(2-((2-(2,6-dioxopiperidin-3-yl)-1-oxoisoindolin-5-yl)oxy)ethyl)phenoxy)propoxy)ethoxy)ethoxy)piperidin-1-yl)pyrimidin-4-yl)amino)-1-methyl-2-oxo-1,2-dihydroquinolin-3-yl)oxy)-N-methylacetamide] was > 100 nM; that for `CNC(=O)COc1cc2cc(Nc3nc(N4CCC(Cc5cn(CCOc6ccc7c(c6)C(=O)N(C6CCC(=O)NC6=O)C7=O)nn5)CC4)ncc3Cl)ccc2n(C)c1=O` (stereo not shown) [compound 112, 2-((6-((5-chloro-2-(4-((1-(2-((2-(2,6-dioxopiperidin-3-yl)-1,3-dioxoisoindolin-5-yl)oxy)ethyl)-1H-1,2,3-triazol-4-yl)methyl)piperidin-1-yl)pyrimidin-4-yl)amino)-1-methyl-2-oxo-1,2-dihydroquinolin-3-yl)oxy)-N-methylacetamide] was 10 to 50 nM.
Next, `CNC(=O)COc1cc2cc(Nc3nc(N4CCC(Cc5cn(CCOCCOc6ccc7c(c6)C(=O)N(C6CCC(=O)NC6=O)C7=O)nn5)CC4)ncc3Cl)ccc2n(C)c1=O` (stereo not shown) [compound 113, 2-((6-((5-chloro-2-(4-((1-(2-(2-((2-(2,6-dioxopiperidin-3-yl)-1,3-dioxoisoindolin-5-yl)oxy)ethoxy)ethyl)-1H-1,2,3-triazol-4-yl)methyl)piperidin-1-yl)pyrimidin-4-yl)amino)-1-methyl-2-oxo-1,2-dihydroquinolin-3-yl)oxy)-N-methylacetamide]: 50 to 100 nM; `CNC(=O)COc1cc2cc(Nc3nc(N4CCC(c5cn(CCOCC(=O)N[C@H](C(=O)N6C[C@H](O)C[C@H]6C(=O)N[C@@H](C)c6ccc(-c7scnc7C)cc6)C(C)(C)C)nn5)CC4)ncc3Cl)ccc2n(C)c1=O` [compound 114, (2S,4R)-1-((S)-2-(2-(2-(4-(1-(5-chloro-4-((1-methyl-3-(2-(methylamino)-2-oxoethoxy)-2-oxo-1,2-dihydroquinolin-6-yl)amino)pyrimidin-2-yl)piperidin-4-yl)-1H-1,2,3-triazol-1-yl)ethoxy)acetamido)-3,3-dimethylbutanoyl)-4-hydroxy-N-((S)-1-(4-(4-methylthiazol-5-yl)phenyl)ethyl)pyrrolidine-2-carboxamide]: 50 to 100 nM; `CNC(=O)COc1cc2cc(Nc3nc(N4CCC(c5cn(CCOCCOCC(=O)N[C@H](C(=O)N6C[C@H](O)C[C@H]6C(=O)N[C@@H](C)c6ccc(-c7scnc7C)cc6)C(C)(C)C)nn5)CC4)ncc3Cl)ccc2n(C)c1=O` [compound 115, (2S,4R)-1-((S)-2-(2-(2-(2-(4-(1-(5-chloro-4-((1-methyl-3-(2-(methylamino)-2-oxoethoxy)-2-oxo-1,2-dihydroquinolin-6-yl)amino)pyrimidin-2-yl)piperidin-4-yl)-1H-1,2,3-triazol-1-yl)ethoxy)ethoxy)acetamido)-3,3-dimethylbutanoyl)-4-hydroxy-N-((S)-1-(4-(4-methylthiazol-5-yl)phenyl)ethyl)pyrrolidine-2-carboxamide]: 10 to 50 nM.
For the molecule `CNC(=O)COc1cc2cc(Nc3nc(N4CCC(c5cn(CCOCCOCCOCC(=O)N[C@H](C(=O)N6C[C@H](O)C[C@H]6C(=O)N[C@@H](C)c6ccc(-c7scnc7C)cc6)C(C)(C)C)nn5)CC4)ncc3Cl)ccc2n(C)c1=O` [compound 116, (2S,4R)-1-((S)-2-(tert-butyl)-14-(4-(1-(5-chloro-4-((1-methyl-3-(2-(methylamino)-2-oxoethoxy)-2-oxo-1,2-dihydroquinolin-6-yl)amino)pyrimidin-2-yl)piperidin-4-yl)-1H-1,2,3-triazol-1-yl)-4-oxo-6,9,12-trioxa-3-azatetradecanoyl)-4-hydroxy-N-((S)-1-(4-(4-methylthiazol-5-yl)phenyl)ethyl) pyrrolidine-2-carboxamide], the DC50 lay within 10 to 50 nM.
